Usually Km stands for the substrate concentration at which the rate is half of its maximum.

For 1 compound, Km results are on record in PMC4657531 (EXCLI Journal, 2013).

The subject of the assay is β-glucosidase. As to the kind of experiment: DNS reducing sugar assay, Lineweaver-Burk plot. In kind it is biochemical, Penicillium simplicissimum. Conditions: citrate buffer pH 4.8, 50 °C, 30 min; salicin 5-50 mg/ml.

Regarding `OCc1ccccc1O[C@@H]1O[C@H](CO)[C@@H](O)[C@H](O)[C@H]1O` [salicin], the Michaelis-Menten constant (Km) is 14.881 mg/mL.
